Literature values as cited in patent US12528823B2, “Inhibitors of aldose reductase” (Applied Therapeutics, Inc., priority 2019, dated 2026).

Key:
[1] = positive control; published/known value; octanol/pH 7.4 phosphate buffer
[2] = system: ischemic injury (cerebral infarction); settings: normal mice; single oral dose either 30 mins before ischemia or 1 h 45 mins after ischemia

SMILES	Log D [1]	reduction in infarct volume resulting from ischemic injury [2]
C[C@]12CC[C@H]3[C@@H](CCC4=CC(=O)CC[C@@]43C)[C@@H]1CC[C@@H]2O [Testosterone]	3.0-3.4	–
NC(=O)[C@@H]1C[C@]2(NC(=O)NC2=O)c2cc(F)ccc2O1 [Fidarestat]	–	16-25%
